The assay concerns the target T1, Human CaV2.2 channels (Homo sapiens, UniProt Q00975).
T1 construct: expressed in transfected cells
Put plainly: Fluorescent assay for CaV2.2 channels using potassium depolarization to induce channel opening (FLIPR, Fluo-4). In kind it is cell-based. As to conditions: 3 μM test compound, 30 mM KCl, HEK293 cells stably expressing human CaV2.2; read-out: %-Inhib (CaV2.2) @3 μM @30 mM KCl. The method, boiled down: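 Channel block was read as the baseline-normalized peak Ca²⁺ signal (Fluo-4, 480/535 nm) after a high-KCl depolarizing addition (210 mM KCl buffer). Beforehand, compound sat 15 min at 25 °C on HEK293 cells carrying human CaV2.2, α2δ/β subunits and Kir2.3, in pH 7.4 buffer with 30 mM KCl.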

A value given as a limit tells only on which side of the number the result lay.

T1 sequence (Q00975 whole entry): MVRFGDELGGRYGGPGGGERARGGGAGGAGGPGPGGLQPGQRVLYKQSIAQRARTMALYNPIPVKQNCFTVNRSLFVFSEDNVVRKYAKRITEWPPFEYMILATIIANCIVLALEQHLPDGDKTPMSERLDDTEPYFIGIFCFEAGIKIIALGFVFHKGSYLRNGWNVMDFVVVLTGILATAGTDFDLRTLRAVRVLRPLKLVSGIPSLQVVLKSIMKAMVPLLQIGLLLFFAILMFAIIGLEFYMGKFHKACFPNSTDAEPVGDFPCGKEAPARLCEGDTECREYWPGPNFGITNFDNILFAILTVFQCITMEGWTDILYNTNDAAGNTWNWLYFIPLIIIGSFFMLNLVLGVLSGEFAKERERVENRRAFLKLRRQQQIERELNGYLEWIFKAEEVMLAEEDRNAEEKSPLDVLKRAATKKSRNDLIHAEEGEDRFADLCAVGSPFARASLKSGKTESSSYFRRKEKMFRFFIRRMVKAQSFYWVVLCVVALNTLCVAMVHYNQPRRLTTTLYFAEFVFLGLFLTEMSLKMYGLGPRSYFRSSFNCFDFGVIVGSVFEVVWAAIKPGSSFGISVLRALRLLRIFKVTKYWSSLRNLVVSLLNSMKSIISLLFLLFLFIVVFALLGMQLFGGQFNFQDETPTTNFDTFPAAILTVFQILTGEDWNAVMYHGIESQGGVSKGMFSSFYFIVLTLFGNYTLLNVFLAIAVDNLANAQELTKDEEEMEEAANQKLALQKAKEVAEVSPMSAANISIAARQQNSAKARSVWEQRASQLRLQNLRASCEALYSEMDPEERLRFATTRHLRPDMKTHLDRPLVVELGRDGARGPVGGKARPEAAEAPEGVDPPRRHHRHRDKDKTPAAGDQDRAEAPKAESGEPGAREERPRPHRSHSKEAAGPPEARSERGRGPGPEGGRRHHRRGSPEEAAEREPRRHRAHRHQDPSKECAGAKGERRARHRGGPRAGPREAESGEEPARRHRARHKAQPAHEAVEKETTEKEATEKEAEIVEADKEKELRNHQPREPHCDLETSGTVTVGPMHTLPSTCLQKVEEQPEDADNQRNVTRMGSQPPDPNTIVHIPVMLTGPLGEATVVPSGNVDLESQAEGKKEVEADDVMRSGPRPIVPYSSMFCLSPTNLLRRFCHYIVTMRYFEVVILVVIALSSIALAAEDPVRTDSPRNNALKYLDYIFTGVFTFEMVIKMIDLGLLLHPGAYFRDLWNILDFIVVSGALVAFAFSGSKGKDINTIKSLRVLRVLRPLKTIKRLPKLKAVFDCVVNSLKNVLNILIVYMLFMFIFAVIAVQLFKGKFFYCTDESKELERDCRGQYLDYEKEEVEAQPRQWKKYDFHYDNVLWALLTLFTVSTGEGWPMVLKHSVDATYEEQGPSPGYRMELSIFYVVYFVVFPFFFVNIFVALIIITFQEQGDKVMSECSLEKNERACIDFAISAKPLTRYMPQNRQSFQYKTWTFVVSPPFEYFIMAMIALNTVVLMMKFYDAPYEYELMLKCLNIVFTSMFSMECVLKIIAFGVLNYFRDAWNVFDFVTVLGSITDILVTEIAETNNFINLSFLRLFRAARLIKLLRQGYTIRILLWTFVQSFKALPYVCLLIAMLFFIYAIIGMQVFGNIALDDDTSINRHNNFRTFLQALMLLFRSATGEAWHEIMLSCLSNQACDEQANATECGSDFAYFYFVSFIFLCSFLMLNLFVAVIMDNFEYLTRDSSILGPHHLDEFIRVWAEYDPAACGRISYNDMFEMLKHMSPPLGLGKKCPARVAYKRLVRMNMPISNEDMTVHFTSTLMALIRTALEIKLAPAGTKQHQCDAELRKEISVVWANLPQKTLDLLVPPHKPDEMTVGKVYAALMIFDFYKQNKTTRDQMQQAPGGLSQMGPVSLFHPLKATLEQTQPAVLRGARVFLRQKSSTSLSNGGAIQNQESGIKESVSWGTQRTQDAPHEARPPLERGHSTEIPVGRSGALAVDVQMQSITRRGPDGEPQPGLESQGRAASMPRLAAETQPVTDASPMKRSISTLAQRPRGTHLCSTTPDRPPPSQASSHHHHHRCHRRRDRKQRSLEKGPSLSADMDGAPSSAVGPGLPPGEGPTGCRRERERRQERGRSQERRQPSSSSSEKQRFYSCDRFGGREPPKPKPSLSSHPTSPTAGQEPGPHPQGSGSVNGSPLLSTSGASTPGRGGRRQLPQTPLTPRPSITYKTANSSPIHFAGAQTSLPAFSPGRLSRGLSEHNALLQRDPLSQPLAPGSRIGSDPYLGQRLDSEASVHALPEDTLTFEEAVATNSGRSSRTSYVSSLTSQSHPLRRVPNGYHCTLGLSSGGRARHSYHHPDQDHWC
T1 sequence (P54289 25-1103, further chain): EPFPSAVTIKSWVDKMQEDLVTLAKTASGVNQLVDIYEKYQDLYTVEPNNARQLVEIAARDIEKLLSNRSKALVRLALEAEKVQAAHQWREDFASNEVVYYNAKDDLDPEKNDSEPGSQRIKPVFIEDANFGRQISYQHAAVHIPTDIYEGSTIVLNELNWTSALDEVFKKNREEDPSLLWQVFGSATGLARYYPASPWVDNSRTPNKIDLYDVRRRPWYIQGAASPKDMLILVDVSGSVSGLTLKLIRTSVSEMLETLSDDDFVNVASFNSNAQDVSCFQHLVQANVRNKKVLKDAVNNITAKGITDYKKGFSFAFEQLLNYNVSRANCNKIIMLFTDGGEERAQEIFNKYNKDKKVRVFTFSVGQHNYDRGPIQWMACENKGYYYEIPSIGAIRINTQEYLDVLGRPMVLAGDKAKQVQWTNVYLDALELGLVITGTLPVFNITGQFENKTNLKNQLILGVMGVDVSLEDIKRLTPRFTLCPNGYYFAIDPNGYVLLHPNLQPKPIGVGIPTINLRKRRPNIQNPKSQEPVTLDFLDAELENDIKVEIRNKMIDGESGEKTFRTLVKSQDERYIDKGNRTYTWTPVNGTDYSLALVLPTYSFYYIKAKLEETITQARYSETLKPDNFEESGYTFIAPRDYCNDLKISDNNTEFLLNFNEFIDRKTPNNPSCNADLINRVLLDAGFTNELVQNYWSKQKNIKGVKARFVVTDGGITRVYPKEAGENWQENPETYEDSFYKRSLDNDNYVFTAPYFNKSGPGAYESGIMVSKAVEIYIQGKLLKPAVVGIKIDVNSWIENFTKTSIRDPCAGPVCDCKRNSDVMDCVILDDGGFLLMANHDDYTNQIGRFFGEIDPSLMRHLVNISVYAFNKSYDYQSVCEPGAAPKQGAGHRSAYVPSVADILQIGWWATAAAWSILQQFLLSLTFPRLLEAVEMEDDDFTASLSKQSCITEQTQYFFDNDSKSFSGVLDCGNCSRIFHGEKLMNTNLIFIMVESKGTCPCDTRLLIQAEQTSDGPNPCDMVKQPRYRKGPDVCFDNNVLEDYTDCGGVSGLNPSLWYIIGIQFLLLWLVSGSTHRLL
T1 sequence (P54284 whole entry, further chain): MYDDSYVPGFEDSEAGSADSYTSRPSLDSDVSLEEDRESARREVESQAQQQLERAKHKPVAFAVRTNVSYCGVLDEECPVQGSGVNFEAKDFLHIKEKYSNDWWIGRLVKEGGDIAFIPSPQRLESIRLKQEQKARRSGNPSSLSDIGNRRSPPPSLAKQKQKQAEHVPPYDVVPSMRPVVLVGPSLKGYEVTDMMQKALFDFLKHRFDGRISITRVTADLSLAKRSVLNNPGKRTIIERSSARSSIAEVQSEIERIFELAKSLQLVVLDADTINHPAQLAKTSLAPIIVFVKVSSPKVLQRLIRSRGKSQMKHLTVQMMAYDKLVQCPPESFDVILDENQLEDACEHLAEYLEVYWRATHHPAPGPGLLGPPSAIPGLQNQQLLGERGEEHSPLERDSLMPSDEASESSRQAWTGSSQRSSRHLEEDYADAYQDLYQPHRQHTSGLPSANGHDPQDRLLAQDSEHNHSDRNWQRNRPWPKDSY

On to `Cc1c(-c2ccc(F)c(Cl)c2)c(C(=O)N(C)C2CC2)n(Cc2ccccc2)c1C(F)(F)F` [SC-254, 1-Benzyl-3-(3-chloro-4-fluoro-phenyl)-N-cyclopropyl-N,4-dimethyl-5-(trifluoromethyl)-1H-pyrrole-2-carboxylic acid amide], for which the inhibition at 3 µM is 75 to 95%.
Then `Cc1c(-c2ccc(Cl)cc2F)c(C(=O)N2CCC(CO)C2)n(Cc2ccccc2)c1C(F)(F)F` (centres unmarked) [SC-166, [1-Benzyl-3-(4-chloro-2-fluoro-phenyl)-4-methyl-5-(trifluoromethyl)-1H-pyrrol-2-yl]-[3-(hydroxymethyl)-pyrrolidin-1-yl]-methanone], with more than 95%; and `Cc1c(-c2ccc(Cl)cc2F)c(C(=O)NCCS(C)(=O)=O)n(Cc2ccccc2)c1C(F)(F)F` [SC-163, 1-Benzyl-3-(4-chloro-2-fluoro-phenyl)-4-methyl-N-(2-methylsulfonyl-ethyl)-5-(trifluoromethyl)-1H-pyrrole-2-carboxylic acid amide], with more than 95%; and `Cc1c(-c2ccc(Cl)c(F)c2)c(C(=O)N2CC(F)(F)C2)n(Cc2ccccc2)c1C(F)(F)F` [SC-98, [1-Benzyl-3-(4-chloro-3-fluoro-phenyl)-4-methyl-5-(trifluoromethyl)-1H-pyrrol-2-yl]-(3,3-difluoro-azetidin-1-yl)-methanone], with 40 to 75%.
For the molecule `Cc1c(-c2ccc(Cl)cc2)c(C(=O)N(C)Cc2nccn2C)n(Cc2ccccc2)c1C(F)(F)F` [SC-148, 1-Benzyl-3-(4-chlorophenyl)-N,4-dimethyl-N-[(1-methyl-1H-imidazol-2-yl)-methyl]-5-(trifluoromethyl)-1H-pyrrole-2-carboxylic acid amide], the inhibition at 3 µM was more than 95%.

For the origin of these results see patent US9302988B2, “Fluoromethyl-substituted pyrrole carboxamides” (GRÜNENTHAL GMBH, priority 2012, dated 2016).
